Test results taken from PubChem BioAssay (NCI).
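These data come from cells grown in 96-well plates and exposed to compound for 48 hours at five concentrations. The concentration for full growth arrest is given as TGI.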

Experiments:
Assay in all cases: NCI-60 cell line screen, 48 h
HOP-18 NSCLC = test system: HOP-18 NSCLC
UACC-257 melanoma = test system: UACC-257 melanoma
OVCAR-4 ovarian = test system: OVCAR-4 ovarian
SR leukemia = test system: SR leukemia
OVCAR-8 ovarian = test system: OVCAR-8 ovarian
NCI-H23 lung = test system: NCI-H23 lung
HCT-15 colon = test system: HCT-15 colon
SN12C renal = test system: SN12C renal
LXFL 529 NSCLC = test system: LXFL 529 NSCLC
OVCAR-3 ovarian = test system: OVCAR-3 ovarian
TK-10 renal = test system: TK-10 renal
DLD-1 colon = test system: DLD-1 colon
HOP-62 NSCLC = test system: HOP-62 NSCLC
K-562 leukemia = test system: K-562 leukemia
SK-MEL-2 melanoma = test system: SK-MEL-2 melanoma
SF-295 CNS = test system: SF-295 CNS
UACC-62 melanoma = test system: UACC-62 melanoma
IGROV1 ovarian = test system: IGROV1 ovarian
OVCAR-5 ovarian = test system: OVCAR-5 ovarian
COLO 205 colon = test system: COLO 205 colon
KM12 colon = test system: KM12 colon
NCI-H522 lung = test system: NCI-H522 lung
U251 CNS = test system: U251 CNS
CAKI-1 renal = test system: CAKI-1 renal
MOLT-4 leukemia = test system: MOLT-4 leukemia
M14 melanoma = test system: M14 melanoma
SF-539 CNS = test system: SF-539 CNS
DMS 114 small cell lung = test system: DMS 114 small cell lung
DMS 273 small cell lung = test system: DMS 273 small cell lung
HL-60(TB) leukemia = test system: HL-60(TB) leukemia
HCC-2998 colon = test system: HCC-2998 colon
EKVX NSCLC = test system: EKVX NSCLC
LOX IMVI melanoma = test system: LOX IMVI melanoma
SW-620 colon = test system: SW-620 colon
SK-OV-3 ovarian = test system: SK-OV-3 ovarian
SNB-19 CNS = test system: SNB-19 CNS
A498 renal = test system: A498 renal
RXF 393 renal = test system: RXF 393 renal
HT29 colon = test system: HT29 colon
ACHN renal = test system: ACHN renal
HCT-116 colon = test system: HCT-116 colon
KM20L2 colon = test system: KM20L2 colon
M19-MEL melanoma = test system: M19-MEL melanoma
786-0 renal = test system: 786-0 renal
A549 NSCLC = test system: A549 NSCLC
MALME-3M melanoma = test system: MALME-3M melanoma
UO-31 renal = test system: UO-31 renal
SNB-75 CNS = test system: SNB-75 CNS
HOP-92 NSCLC = test system: HOP-92 NSCLC
SK-MEL-28 melanoma = test system: SK-MEL-28 melanoma
SF-268 CNS = test system: SF-268 CNS
CCRF-CEM leukemia = test system: CCRF-CEM leukemia
NCI-H460 lung = test system: NCI-H460 lung
XF 498 CNS = test system: XF 498 CNS
NCI-H226 lung = test system: NCI-H226 lung
SNB-78 CNS = test system: SNB-78 CNS
SK-MEL-5 melanoma = test system: SK-MEL-5 melanoma
RPMI-8226 leukemia = test system: RPMI-8226 leukemia

CC(C)(C)c1ccc2c(c1)C(O)(c1ccccc1)c1cc(C(C)(C)C)ccc1C2(O)C(F)(F)F (configuration not stated)
TGI (HOP-18 NSCLC): 5.06 µM
TGI (UACC-257 melanoma): 4.85 µM
TGI (OVCAR-4 ovarian): 3.7 µM
TGI (SR leukemia): 5.12 µM
TGI (OVCAR-8 ovarian): 4.29 µM
TGI (NCI-H23 lung): 4.39 µM
TGI (HCT-15 colon): 3.83 µM
TGI (SN12C renal): 3.14 µM
TGI (LXFL 529 NSCLC): 4.39 µM
TGI (OVCAR-3 ovarian): 4.29 µM
TGI (TK-10 renal): 11.4 µM
TGI (DLD-1 colon): 4.15 µM
TGI (HOP-62 NSCLC): 2.94 µM
TGI (K-562 leukemia): 5.62 µM
TGI (SK-MEL-2 melanoma): 3.63 µM
TGI (SF-295 CNS): 2.88 µM
TGI (UACC-62 melanoma): 3.66 µM
TGI (IGROV1 ovarian): 4.94 µM
TGI (OVCAR-5 ovarian): 3.05 µM
TGI (COLO 205 colon): 3.27 µM
TGI (KM12 colon): 4.87 µM
TGI (NCI-H522 lung): 3.45 µM
TGI (U251 CNS): 3.31 µM
TGI (CAKI-1 renal): 4.73 µM
TGI (MOLT-4 leukemia): 4.71 µM
TGI (M14 melanoma): 3.59 µM
TGI (SF-539 CNS): 3.41 µM
TGI (DMS 114 small cell lung): 5.21 µM
TGI (DMS 273 small cell lung): 3.55 µM
TGI (HL-60(TB) leukemia): 5.15 µM
TGI (HCC-2998 colon): 3.66 µM
TGI (EKVX NSCLC): 9.85 µM
TGI (LOX IMVI melanoma): 3.32 µM
TGI (SW-620 colon): 4.23 µM
TGI (SK-OV-3 ovarian): 8.57 µM
TGI (SNB-19 CNS): 6.32 µM
TGI (A498 renal): 3.25 µM
TGI (RXF 393 renal): 3.87 µM
TGI (HT29 colon): 2.99 µM
TGI (ACHN renal): 5.77 µM
TGI (HCT-116 colon): 3.37 µM
TGI (KM20L2 colon): 3.05 µM
TGI (M19-MEL melanoma): 3.7 µM
TGI (786-0 renal): 3.77 µM
TGI (A549 NSCLC): 3.7 µM
TGI (MALME-3M melanoma): 5.56 µM
TGI (UO-31 renal): 4.58 µM
TGI (SNB-75 CNS): 5.48 µM
TGI (HOP-92 NSCLC): 3.79 µM
TGI (SK-MEL-28 melanoma): 4.54 µM
TGI (SF-268 CNS): 4.48 µM
TGI (CCRF-CEM leukemia): 5.57 µM
TGI (NCI-H460 lung): 3.5 µM
TGI (XF 498 CNS): 2.9 µM
TGI (NCI-H226 lung): 2.35 µM

O=c1c2c([nH]c3cc4c(cc13)OCO4)-c1ccccc1C2
TGI (HOP-18 NSCLC): 68.1 µM
TGI (SNB-78 CNS): > 100 µM
TGI (OVCAR-4 ovarian): > 100 µM
TGI (SR leukemia): 56.1 µM
TGI (OVCAR-8 ovarian): > 100 µM
TGI (NCI-H23 lung): 67.5 µM
TGI (HCT-15 colon): > 100 µM
TGI (SN12C renal): 84.6 µM
TGI (LXFL 529 NSCLC): 63.7 µM
TGI (OVCAR-3 ovarian): 51.6 µM
TGI (TK-10 renal): 78.5 µM
TGI (DLD-1 colon): 58.7 µM
TGI (HOP-62 NSCLC): 52.4 µM
TGI (K-562 leukemia): > 100 µM
TGI (SK-MEL-2 melanoma): 28.9 µM
TGI (SF-295 CNS): 84.8 µM
TGI (UACC-62 melanoma): 32.3 µM
TGI (IGROV1 ovarian): 49.7 µM
TGI (COLO 205 colon): 31.5 µM
TGI (KM12 colon): 42.8 µM
TGI (NCI-H522 lung): 55.5 µM
TGI (U251 CNS): 35.6 µM
TGI (CAKI-1 renal): > 100 µM
TGI (MOLT-4 leukemia): 82 µM
TGI (M14 melanoma): 46.5 µM
TGI (SF-539 CNS): 34.7 µM
TGI (DMS 273 small cell lung): 42.3 µM
TGI (HL-60(TB) leukemia): 70.1 µM
TGI (HCC-2998 colon): 84.1 µM
TGI (EKVX NSCLC): > 100 µM
TGI (LOX IMVI melanoma): 31.7 µM
TGI (SW-620 colon): > 100 µM
TGI (SK-OV-3 ovarian): > 100 µM
TGI (SNB-19 CNS): > 100 µM
TGI (RXF 393 renal): 34.2 µM
TGI (HT29 colon): 33 µM
TGI (ACHN renal): 53.8 µM
TGI (HCT-116 colon): 37.4 µM
TGI (KM20L2 colon): 36.7 µM
TGI (786-0 renal): > 100 µM
TGI (A549 NSCLC): > 100 µM
TGI (MALME-3M melanoma): 62.9 µM
TGI (UO-31 renal): 86.1 µM
TGI (SK-MEL-5 melanoma): 29.6 µM
TGI (HOP-92 NSCLC): 56.3 µM
TGI (SK-MEL-28 melanoma): 59.9 µM
TGI (RPMI-8226 leukemia): 48.2 µM
TGI (SF-268 CNS): > 100 µM
TGI (CCRF-CEM leukemia): 71.4 µM
TGI (NCI-H460 lung): 63.9 µM
TGI (XF 498 CNS): 49.4 µM
TGI (NCI-H226 lung): 86.7 µM
